# US11767504B2, “Albumin compositions and methods of producing and using same” (Albcura Corporation, priority 2020, dated 2023)
# Tested on: Insulin
# Experiment: Assay of insulin aggregation stabilization by various albumin (absorbance at 360 nm)
# Type: biochemical
# Settings: 1−(A360 with albumin)/(A360 of (−) group), at time point where control A360 near 0.35; albumin samples 2 mg/mL mixed 1:1 with 0.7 mg/mL insulin working solution, 37° C.
# Method: Various albumin samples were diluted to 2 mg/mL in purified water. An assay working solution was prepared containing 60 mM of HEPES (pH=7.4), 300 mM of NaCl, 30 mM of 2-mercaptoethanol, and 0.7 mg/mL of Insulin. In a 96-well plate, 100 μL of the assay working solution was mixed with 100 μL of each albumin sample. The plate was incubated at 37° C. inside a plate reader, and the absorbance at 360 nm was measured every 30 seconds for 60 minutes.
# The absorbance data at 360 nm (A360) of each group was picked at the time point where the A360 of the control group (without albumin, labeled as (−)) was near 0.35. […] Stabilizing Efficiency %=1−(A360 of experimental group with albumin)/(A360 of (−) group)
substance,measurement,value
fatty acid free BSA: Fatty acid-free BSA from Sigma Aldrich (A8806),Stabilizing Efficiency,53%
